Tested on: yeast genes (expressed mRNA)
Test: DNA chip measurement of expressed mRNA of yeast genes after culture with a toxic chemical substance
Type: cell-based, Saccharomyces cerevisiae S288C
Method in brief: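 Yeast S288C, YPD 25° C; toxicant at log phase, 2 h, sublethal growth-inhibiting conc.; no-chemical control. Hot SDS/acetate RNA extraction, oligo-dT mRNA, Cy3/Cy5-dUTP RT. Whole-genome chip, 65° C >12 h. Readout: treated/control intensity ratio, ≥2 significant.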

Compound: C=CC=O [(14), Acrolein]
- The level of expressed mRNA in the presence of chemical substance/The level of expressed mRNA in the absence of chemical substance (yeast gene YGL053W, cultured two hours with substance): 1.1
- The level of expressed mRNA in the presence of chemical substance/The level of expressed mRNA in the absence of chemical substance (yeast gene YGL091C, DNA repair protein genes, cultured two hours with substance): 3.1
- The level of expressed mRNA in the presence of chemical substance/The level of expressed mRNA in the absence of chemical substance (yeast gene YGL121C, cultured two hours with substance): 5.8
- The level of expressed mRNA in the presence of chemical substance/The level of expressed mRNA in the absence of chemical substance (yeast gene YGL136C, cultured two hours with substance): 2.3
- The level of expressed mRNA in the presence of chemical substance/The level of expressed mRNA in the absence of chemical substance (yeast gene YGL199C, cultured two hours with substance): 0.8
- The level of expressed mRNA in the presence of chemical substance/The level of expressed mRNA in the absence of chemical substance (yeast gene YGR043C, cultured for two hours with substance): 4.1
- The level of expressed mRNA in the presence of chemical substance/The level of expressed mRNA in the absence of chemical substance (yeast gene YGR064W, cultured two hours with the chemical substance): 2.1
- The level of expressed mRNA in the presence of chemical substance/The level of expressed mRNA in the absence of chemical substance (yeast gene YGR101W, cultured two hours with substance): 0.9
- The level of expressed mRNA in the presence of chemical substance/The level of expressed mRNA in the absence of chemical substance (yeast gene YGR110W, cultured two hours with substance): 2.8
- The level of expressed mRNA in the presence of chemical substance/The level of expressed mRNA in the absence of chemical substance (yeast gene YGR130C, cultured two hours with substance): 0.9
- The level of expressed mRNA in the presence of chemical substance/The level of expressed mRNA in the absence of chemical substance (yeast gene YGR146C, cultured two hours with substance): 1.3
- The level of expressed mRNA in the presence of chemical substance/The level of expressed mRNA in the absence of chemical substance (yeast gene YGR154C, cultured two hours with substance): 2.2
- The level of expressed mRNA in the presence of chemical substance/The level of expressed mRNA in the absence of chemical substance (yeast gene YGR209C (detoxification protein gene)): 5.0
- The level of expressed mRNA in the presence of chemical substance/The level of expressed mRNA in the absence of chemical substance (yeast gene YGR221C, cultured two hours with substance): 1.4
- The level of expressed mRNA in the presence of chemical substance/The level of expressed mRNA in the absence of chemical substance (yeast gene YHR029C, cultured two hours with substance): 3.5
- The level of expressed mRNA in the presence of chemical substance/The level of expressed mRNA in the absence of chemical substance (yeast gene YHR138C, cultured two hours with substance): 3.4
- The level of expressed mRNA in the presence of chemical substance/The level of expressed mRNA in the absence of chemical substance (yeast gene YHR179W, cultured for two hours with substance): 5.8
- The level of expressed mRNA in the presence of chemical substance/The level of expressed mRNA in the absence of chemical substance (yeast gene YHR199C, cultured two hours with substance): 2.0
- The level of expressed mRNA in the presence of chemical substance/The level of expressed mRNA in the absence of chemical substance (yeast gene YHR209W, cultured two hours with substance): 2.2
- The level of expressed mRNA in the presence of chemical substance/The level of expressed mRNA in the absence of chemical substance (yeast gene YIL015W): 5.9
- The level of expressed mRNA in the presence of chemical substance/The level of expressed mRNA in the absence of chemical substance (yeast gene YIL023C, cultured two hours with substance): 0.7
- The level of expressed mRNA in the presence of chemical substance/The level of expressed mRNA in the absence of chemical substance (yeast gene YIL024C, cultured two hours with substance): 1.5
- The level of expressed mRNA in the presence of chemical substance/The level of expressed mRNA in the absence of chemical substance (yeast gene YIL041W, cultured two hours with substance): 1.3
- The level of expressed mRNA in the presence of chemical substance/The level of expressed mRNA in the absence of chemical substance (yeast gene YIL057C, cultured two hours with the chemical substance): 1.5
- The level of expressed mRNA in the presence of chemical substance/The level of expressed mRNA in the absence of chemical substance (yeast gene YIL087C, cultured two hours with substance): 1.3
- The level of expressed mRNA in the presence of chemical substance/The level of expressed mRNA in the absence of chemical substance (yeast gene YIL117C, cultured two hours with substance): 2.6
- The level of expressed mRNA in the presence of chemical substance/The level of expressed mRNA in the absence of chemical substance (yeast gene YJL020C, cultured two hours with substance): 1.2
- The level of expressed mRNA in the presence of chemical substance/The level of expressed mRNA in the absence of chemical substance (yeast gene YJL036W, cultured two hours with substance): 1.5
- The level of expressed mRNA in the presence of chemical substance/The level of expressed mRNA in the absence of chemical substance (yeast gene YJL057C, cultured two hours with substance): 1.6
- The level of expressed mRNA in the presence of chemical substance/The level of expressed mRNA in the absence of chemical substance (yeast gene YJL066C, cultured two hours with substance): 1.0
- The level of expressed mRNA in the presence of chemical substance/The level of expressed mRNA in the absence of chemical substance (yeast gene YJL082W, cultured two hours with substance): 0.5
- The level of expressed mRNA in the presence of chemical substance/The level of expressed mRNA in the absence of chemical substance (yeast gene YJL108C, cultured two hours with substance): 1.0
- The level of expressed mRNA in the presence of chemical substance/The level of expressed mRNA in the absence of chemical substance (yeast gene YJL149W, cultured two hours with substance): 1.1
- The level of expressed mRNA in the presence of chemical substance/The level of expressed mRNA in the absence of chemical substance (yeast gene YJL151C, cultured two hours with substance): 1.3
- The level of expressed mRNA in the presence of chemical substance/The level of expressed mRNA in the absence of chemical substance (yeast gene YJL152W, cultured two hours with substance): 1.4
- The level of expressed mRNA in the presence of chemical substance/The level of expressed mRNA in the absence of chemical substance (yeast gene YJL161W, cultured two hours with substance): 2.2
- The level of expressed mRNA in the presence of chemical substance/The level of expressed mRNA in the absence of chemical substance (yeast gene YJL171C, cultured two hours with substance): 1.0
- The level of expressed mRNA in the presence of chemical substance/The level of expressed mRNA in the absence of chemical substance (yeast gene YJL186W, cultured two hours with substance): 0.8
- The level of expressed mRNA in the presence of chemical substance/The level of expressed mRNA in the absence of chemical substance (yeast gene YJR008W, cultured two hours with substance): 1.2
- The level of expressed mRNA in the presence of chemical substance/The level of expressed mRNA in the absence of chemical substance (yeast gene YJR048W, cultured for two hours with substance): 2.5
- The level of expressed mRNA in the presence of chemical substance/The level of expressed mRNA in the absence of chemical substance (yeast gene YJR054W, cultured two hours with substance): 1.2
- The level of expressed mRNA in the presence of chemical substance/The level of expressed mRNA in the absence of chemical substance (yeast gene YKL065C, cultured two hours with substance): 2.1

— US20100041089A1, “IMPROVED METHOD FOR DETECTING CHEMICAL […]” (priority 2006, published 2010)
